The record followed here is patent publication US6525059B1, “Substituted pyrazoles as p38 kinase inhibitors” (G. D. Searle & Company, priority 1998, dated 2003).

Assay [1] has as its target T1, human p38 kinase alpha (Homo sapiens, UniProt Q16539).
T1 construct: The coding region of the human p38a cDNA was obtained by PCR-amplification from RNA isolated from the human monocyte cell line THP.1; GST (N); made in house; host or cells: E. coli DH10B
The assay can be described thus: p38 kinase in vitro assay, phosphorylation of biotinylated PHAS-I with gamma 32P-ATP. Type of assay: biochemical. The conditions noted are these: for inhibition at 10 µM / inhibition at 1 µM: read-out: P38 alpha kinase % inhib @ conc. Put shortly: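 MKK6-activated human p38α phosphorylates biotinylated PHAS-I with γ-32P-ATP in 25 mM HEPES pH 7.5, 10 mM Mg acetate, 50 μM unlabeled ATP, 1% DMSO, 30 °C for 1 h or overnight. Compounds at 100–0.001 μM (10-fold steps, triplicate); substrate captured on streptavidin filter plates and counted by scintillation.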

Assay [2] has as its system TNF-α. As to the kind of experiment: LPS stimulation of TNF production by U937 cells. Type of assay: cell-based, human. The conditions noted are these: for inhibition at 1 µM: U-937, @ 1.0 uM, read-out: U937 Cell % inhib @ conc. The method, boiled down:
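PMA-differentiated human U937 cells (20 ng/ml PMA, 24 h, then 24-48 h rest) at 2 million cells/ml, 0.1% DMSO final, stimulated with E. coli LPS (100 ng/ml final) for 4 h at 37° C. TNF-α in medium measured by ELISA; IC50 in μM.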

The mark [3] stands for this setting: read-out: P38 alpha kinase IC50.
Setting [4] is: Homo sapiens, U-937, TNF production, LPS-stimulated human U937 cells, read-out: U937 Cell IC50.
The mark [5] stands for this setting: TNF production, LPS-stimulated human U937 cells, read-out: U937 Cell IC50.
[6] abbreviates: p38α in vitro, PHAS-I assay procedure, read-out: p38^1 IC50.
The mark [7] stands for this setting: Homo sapiens, U-937, LPS-stimulated U937 cells, read-out: U937 IC50.

Like-named read-outs stand apart in the source and are kept apart here. Bounds are passed on as bounds.

T1 sequence (Q16539 whole entry): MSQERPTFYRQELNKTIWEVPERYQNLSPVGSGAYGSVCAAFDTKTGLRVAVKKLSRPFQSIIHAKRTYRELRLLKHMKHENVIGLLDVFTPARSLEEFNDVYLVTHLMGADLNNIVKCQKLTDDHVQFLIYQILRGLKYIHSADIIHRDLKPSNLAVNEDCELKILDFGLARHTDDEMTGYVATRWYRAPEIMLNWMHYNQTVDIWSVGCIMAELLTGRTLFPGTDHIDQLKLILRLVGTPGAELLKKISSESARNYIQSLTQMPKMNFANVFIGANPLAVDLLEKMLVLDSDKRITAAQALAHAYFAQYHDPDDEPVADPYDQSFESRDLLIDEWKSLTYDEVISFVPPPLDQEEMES

Regarding `CC(Oc1ccccc1)C(=O)NCc1[nH]nc(-c2ccc(F)cc2)c1-c1ccncc1` (stereo not drawn) [Example B-0202], the IC50 (usually the concentration needed to halve the response being measured) in assay [1] (setting [3]) came to 550 nM; in assay [2] (setting [4]) it was 2260 nM.
For the molecule `C[C@@H](NS(=O)(=O)c1ccccc1C(F)(F)F)c1[nH]nc(-c2ccc(F)cc2)c1-c1ccncc1` [Example B-0458], the IC50 in assay [1] (setting [3]) worked out at 33 nM. Besides, the inhibition at 1 µM in assay [2] (Homo sapiens) worked out at 70%.
As for `O=C(NCc1[nH]nc(-c2ccc(F)cc2)c1-c1ccncc1)c1ccc(F)cc1C(F)(F)F` [Example B-0286], the IC50 in assay [1] (setting [3]) stood at 330 nM. In assay [2] (Homo sapiens), the inhibition at 1 µM was found to be 50%.
The corresponding values for `C[C@@H](NS(=O)(=O)c1cccc2nonc12)c1[nH]nc(-c2ccc(F)cc2)c1-c1ccncc1` [Example B-0477] are 1480 nM and 96%.
The corresponding values for `CS(=O)(=O)c1ccccc1S(=O)(=O)NCc1[nH]nc(-c2ccc(F)cc2)c1-c1ccncc1` [Example B-0261] are 490 nM and 23%.
Consider `C[C@@H](NC(=O)c1c(Cl)cccc1Cl)c1[nH]nc(-c2ccc(F)cc2)c1-c1ccncc1` [Example B-0519], for which the IC50 in assay [1] (setting [3]) came to 43 nM. For the same molecule, the inhibition at 1 µM in assay [2] (Homo sapiens) stood at 87%.
Regarding `O=S(=O)(NCc1[nH]nc(-c2ccc(F)cc2)c1-c1ccncc1)c1cc(S(=O)(=O)c2ccccc2)cs1` [Example B-0259], in assay [1] (setting [3]), the IC50 was found to be 350 nM. For the same molecule, the inhibition at 1 µM in assay [2] (Homo sapiens) amounted to 58%.
On to `O=C(NCCc1ccccc1)NCc1[nH]nc(-c2ccc(F)cc2)c1-c1ccncc1` [Example B-0157], for which the inhibition at 10 µM in assay [1] turned out to be 48%. Besides, the inhibition at 1 µM in assay [2] (Homo sapiens) is 9%.
For the molecule `O=C(NCc1[nH]nc(-c2ccc(F)cc2)c1-c1ccncc1)C(F)(F)F` [Example B-0210], the IC50 in assay [1] (setting [3]) is 57 nM. In assay [2] (Homo sapiens), the inhibition at 1 µM stood at 67%.
As for `CC(=O)NCc1[nH]nc(-c2ccc(F)cc2)c1-c1ccncc1` [Example B-0044], the results for the IC50 in assay [1] (setting [3]) and in assay [2] (setting [4]) were 140 nM and 190 nM, respectively.
Turning to `C=CCOC(=O)NCc1[nH]nc(-c2ccc(F)cc2)c1-c1ccncc1` [Example B-0033], the “P38 alpha kinase % inhib @ conc.” value in assay [1] (@ 1.0 uM) is 97.0% @ 1.0 uM. The IC50 in assay [2] (setting [5]) amounted to 10000 nM.
With `O=C(CCc1ccccc1)NCc1[nH]nc(-c2ccc(F)cc2)c1-c1ccncc1` [Example B-0076], the inhibition at 1 µM in assay [1] (@ 1.0 uM) was 58%; in assay [2] (Homo sapiens), 21%.
For `C[C@@H](NS(=O)(=O)c1ccccc1C#N)c1[nH]nc(-c2ccc(F)cc2)c1-c1ccncc1` [Example B-0450], the IC50 in assay [1] (setting [3]) was determined as 260 nM. Also, the inhibition at 1 µM in assay [2] (Homo sapiens) came out at 81%.
Taken in the same sequence, the figures for `C[C@@H](NC(=O)c1ccno1)c1[nH]nc(-c2ccc(F)cc2)c1-c1ccncc1` [Example B-0364] were 1440 nM and 27%.
The corresponding values for `O=S(=O)(NCc1[nH]nc(-c2ccc(F)cc2)c1-c1ccncc1)c1cccc2cnccc12` [Example B-0265] are 920 nM and 24%.
Taken in the same sequence, the figures for `O=C(NCc1[nH]nc(-c2ccc(F)cc2)c1-c1ccncc1)c1cc(F)cc(F)c1` [Example B-0277] were 680 nM and 34%.
For `C[C@@H](NS(=O)(=O)[C@@]12CC[C@H](CC1=O)C2(C)C)c1[nH]nc(-c2ccc(F)cc2)c1-c1ccncc1` [Example B-0472], the IC50 in assay [1] (setting [3]) amounted to 190 nM. For the same molecule, the inhibition at 1 µM in assay [2] (Homo sapiens) stood at 54%.
The corresponding values for `CCNC(=O)NCc1[nH]nc(-c2ccc(F)cc2)c1-c1ccncc1` [Example B-0212] are 120 nM and 28%.
The corresponding values for `Cn1cnc(S(=O)(=O)NCc2[nH]nc(-c3ccc(F)cc3)c2-c2ccncc2)c1` [Example B-0266] are 250 nM and 24%.
Taken in the same sequence, the figures for `CC(C)OC(=O)NCc1[nH]nc(-c2ccc(F)cc2)c1-c1ccncc1` [Example B-0205] were 96 nM and 54%.
In the case of `Fc1ccc(-c2n[nH]c(NCCCN3CCOCC3)c2-c2ccncc2)cc1` [Example A-286, N-[5-(4-fluorophenyl)-4-(4-pyridinyl)-1H-pyrazol-3-yl]-4-morpholinepropanamine], the IC50 in assay [1] (setting [6]) stood at 57 nM; in assay [2] (setting [7]), 90 nM.
In the case of `CC(C)(C)C(=O)NC(Cc1ccccc1)c1[nH]nc(-c2ccc(F)cc2)c1-c1ccncc1` (stereo not drawn) [Example B-0791], the IC50 in assay [1] (setting [3]) was 300 nM; in assay [2] (setting [5]), above 1000 nM.
For `O=C(NCc1[nH]nc(-c2ccc(F)cc2)c1-c1ccncc1)c1cc(F)c(F)cc1F` [Example B-0296], the IC50 in assay [1] (setting [3]) was determined as 8030 nM. Also, the inhibition at 1 µM in assay [2] (Homo sapiens) turned out to be 36%.
The corresponding values for `O=S(=O)(NCc1[nH]nc(-c2ccc(F)cc2)c1-c1ccncc1)c1ccc(-c2ccon2)s1` [Example B-0262] are 410 nM and 89%.
Taken in the same sequence, the figures for `O=S(=O)(NCc1[nH]nc(-c2ccc(F)cc2)c1-c1ccncc1)c1cccc2nonc12` [Example B-0252] were 41 nM and 54%.
As for `C=CCOC(=O)N[C@H](C)c1[nH]nc(-c2ccc(F)cc2)c1-c1ccncc1` [Example B-0357], the IC50 in assay [1] (setting [3]) came to 1460 nM; in assay [2] (setting [4]) it was 660 nM.
In the case of `CCN(CC)CCn1cc(-c2ccnc(F)c2)c(-c2ccc(F)cc2)n1` [Example A-278, N,N-diethyl-3-(4-fluorophenyl)-4-(2-fluoro-4-pyridinyl)-1H-pyrazole-1-ethanamine], the half-maximal inhibitory concentration (IC50) worked out at 285 nM in assay [1] (setting [6]) and 2300 nM in assay [2] (setting [7]).
`Cc1ccccc1C(=O)NCc1[nH]nc(-c2ccc(F)cc2)c1-c1ccncc1` [Example B-0267]: the IC50 in assay [1] (setting [3]) turned out to be 480 nM. In assay [2] (Homo sapiens), the inhibition at 1 µM was 11%.
The corresponding values for `O=C(NCc1[nH]nc(-c2ccc(F)cc2)c1-c1ccncc1)[C@H]1CCCN1C(=O)OCC1c2ccccc2-c2ccccc21` [Example B-0197] are 2000 nM and 14%.
Turning to `O=C(NCc1[nH]nc(-c2ccc(F)cc2)c1-c1ccncc1)Nc1ccc(C(F)(F)F)cc1` [Example B-0163], the inhibition at 10 µM in assay [1] was found to be 20%. Further, the inhibition at 1 µM in assay [2] (Homo sapiens) is 10%.
Consider `COc1ccc(Cl)cc1S(=O)(=O)N[C@H](C)c1[nH]nc(-c2ccc(F)cc2)c1-c1ccncc1` [Example B-0478], for which the IC50 in assay [1] (setting [3]) was 34 nM. Also, in assay [2] (Homo sapiens), the inhibition at 1 µM worked out at 87%.
Regarding `CN(C)c1cccc2c(S(=O)(=O)NCc3[nH]nc(-c4ccc(F)cc4)c3-c3ccncc3)cccc12` [Example B-0122], the inhibition at 10 µM in assay [1] was found to be 79%. Further, the inhibition at 1 µM in assay [2] (Homo sapiens) came to 2%.
For `Cc1c(C)c(S(=O)(=O)N[C@H](C)c2[nH]nc(-c3ccc(F)cc3)c2-c2ccncc2)c(C)c2c1OC(C)(C)CC2` [Example B-0482], the IC50 in assay [1] (setting [3]) amounted to 970 nM. In addition, in assay [2] (Homo sapiens), the inhibition at 1 µM was found to be 68%.
Regarding `C[C@@H](NC(N)=O)c1[nH]nc(-c2ccc(F)cc2)c1-c1ccncc1` [Example B-0402], the IC50 in assay [1] (setting [3]) was determined as 140 nM; in assay [2] (setting [4]) it was 1510 nM.
For the molecule `C[C@@H](NS(=O)(=O)c1c(Cl)cccc1Cl)c1[nH]nc(-c2ccc(F)cc2)c1-c1ccncc1` [Example B-0453], the IC50 in assay [1] (setting [3]) is 470 nM. Also, in assay [2] (Homo sapiens), the inhibition at 1 µM is 75%.
The corresponding values for `CC(C)C(=O)N[C@H](C)c1[nH]nc(-c2ccc(F)cc2)c1-c1ccncc1` [Example B-0355] are 750 nM and 40%.
On to `O=C(NCc1[nH]nc(-c2ccc(F)cc2)c1-c1ccncc1)[C@@H]1CCCN1C(=O)OCC1c2ccccc2-c2ccccc21` [Example B-0195], for which the concentration for half-maximal inhibition (IC50) in assay [1] (setting [3]) was found to be 1030 nM. Further, the inhibition at 1 µM in assay [2] (Homo sapiens) worked out at 55%.
Turning to `Cc1cccc(C)c1NC(=O)N[C@H](C)c1[nH]nc(-c2ccc(F)cc2)c1-c1ccncc1` [Example B-0411], the IC50 in assay [1] (setting [3]) worked out at 620 nM. The inhibition at 1 µM in assay [2] (Homo sapiens) turned out to be 50%.
On to `CCCS(=O)(=O)NC(Cc1ccccc1)c1[nH]nc(-c2ccc(F)cc2)c1-c1ccncc1` (stereo not drawn) [Example B-0760], for which the half-inhibitory concentration (IC50) in assay [1] (setting [3]) was found to be 10 nM. In addition, the “U937 Cell % inhib @ conc.” value in assay [2] (@ 1.0 uM) was 13.0% @ 1.0 uM.
For the molecule `Cc1c(Cl)cccc1S(=O)(=O)NCc1[nH]nc(-c2ccc(F)cc2)c1-c1ccncc1` [Example B-0124], the inhibition at 1 µM in assay [1] (@ 1.0 uM) came to 73%; in assay [2] (Homo sapiens), 15%.
Turning to `O=C(NCc1[nH]nc(-c2ccc(F)cc2)c1-c1ccncc1)c1cc2ccccc2s1` [Example B-0271], the half-maximal inhibitory concentration (IC50) in assay [1] (setting [3]) is 7550 nM. Also, the inhibition at 1 µM in assay [2] (Homo sapiens) was found to be 12%.
As for `COc1ccc(C)cc1S(=O)(=O)NCc1[nH]nc(-c2ccc(F)cc2)c1-c1ccncc1` [Example B-0246], the IC50 in assay [1] (setting [3]) is below 100 nM; in assay [2] (setting [4]) it was above 1000 nM.
